Experimental data as given in PMC9973354 (mBio, 2022).
Values joined by “and” are separate entries in the source; they are usually repeats but may differ in a detail not shown here. Identical values can stand only once. Like-named read-outs stand apart in the source and are kept apart here. Starred links: 1 amine or outer side, 2 acyl side, 3 side chain; linkers in the order of their positions; H or OH if unused. Positions of bridges follow the written chain, without caps; N, C: chain ends. Non-standard residues stand in square brackets, D forms with d. Residues, ends and D or L forms follow the SMILES beside them. ξ: configuration not given here. X1 = O=C([C@@H]1CCN=C2C(N[*:1])=Cc3cc(O)c(O)cc3N21)[*:2]; ξOrn(N(OH)CHO) = NC(CCCN(O)C=O)C(=O)O; Suc = O=C(CCC(=O)[*:2])[*:1]; ξK = NCCCCC(N)C(=O)O; ξS = NC(CO)C(=O)O

Assays:
[1] = target: T1, FpvB R648C (Pseudomonas aeruginosa, UniProt A0A0H2ZFZ5, R648C); experiment: Whole-cell fluorescence quenching, FpvB R648C in quadruple mutant; assay type: binding; settings: FpvB R648C in quadruple mutant, two-site model
T1 sequence (A0A0H2ZFZ5 23-802 R648C): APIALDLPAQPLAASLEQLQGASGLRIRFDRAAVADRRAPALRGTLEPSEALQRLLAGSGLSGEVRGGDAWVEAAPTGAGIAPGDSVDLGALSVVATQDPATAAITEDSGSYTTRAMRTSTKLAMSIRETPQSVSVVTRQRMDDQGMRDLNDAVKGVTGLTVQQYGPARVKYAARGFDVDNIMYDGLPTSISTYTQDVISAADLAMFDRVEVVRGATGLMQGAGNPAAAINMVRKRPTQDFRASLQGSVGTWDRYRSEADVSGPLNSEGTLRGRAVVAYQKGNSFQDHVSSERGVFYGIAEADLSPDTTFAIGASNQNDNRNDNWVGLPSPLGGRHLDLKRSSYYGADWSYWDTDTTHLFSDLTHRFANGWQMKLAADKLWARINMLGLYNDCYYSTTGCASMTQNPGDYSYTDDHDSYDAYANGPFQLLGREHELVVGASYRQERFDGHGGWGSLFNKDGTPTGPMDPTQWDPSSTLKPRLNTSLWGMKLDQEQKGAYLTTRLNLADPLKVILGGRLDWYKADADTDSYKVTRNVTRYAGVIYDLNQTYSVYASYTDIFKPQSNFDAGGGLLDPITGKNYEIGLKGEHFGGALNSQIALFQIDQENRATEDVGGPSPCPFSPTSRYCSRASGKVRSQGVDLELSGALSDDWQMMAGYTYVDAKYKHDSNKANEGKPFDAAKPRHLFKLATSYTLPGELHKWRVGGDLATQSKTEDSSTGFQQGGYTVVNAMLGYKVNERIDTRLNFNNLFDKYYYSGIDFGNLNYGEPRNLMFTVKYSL
Protocol: Quenching assays with the two xenosiderophores were repeated for the quadruple TBDT mutant expressing WT FpvB, FpvB R191A R648C, or W347V R648C.
Cells were cultured overnight in LB with carbenicillin (200 μg/mL) at 37°C with shaking at 200 rpm. Cells were subcultured (1:200 dilution) in 10:90 plus 2% arabinose for 4 h without carbenicillin at 37°C with shaking at 200 rpm. Cells were harvested by centrifugation for 5 min and 6,000 × g and resuspended in sterile 1× phosphate-buffered saline (PBS) (pH 7.4); 1× PBS was made from a 10× stock (80 g NaCl, 2 g KCl, 26.8 g Na2 HPO4-7H2O, 2.4 g KH2PO4 in 1 L of deionized H2O) with 10 μM Alexa Fluor 594 C5 maleimide for microscopy or fluorescein-5-maleimide for fluorescence quenching and recovery assays and incubated in the dark at room temperature for 30 min on a shaking incubator at 37°C (200 rpm). Excess dye was quenched with 1 mM dithiothreitol (DTT) (Sigma) to stop the reaction. Cells were washed 3× with PBS. For fluorescence recovery assays, cells were incubated with 1× PBS plus 0.4% glucose at 37°C with shaking at 200 rpm. Glucose was prepared as a 20% stock (wt/vol) in 1× PBS and filter sterilized. Cells were spun down and washed 3× with 1× PBS and resuspended in 1× PBS for quenching assays and 1× PBS plus 0.4% glucose for fluorescence recovery assays.
(§1) For fluorescence quenching and recovery assays, cells were diluted to an OD600 of 0.1 for both types of assays, and 148 μL was added into wells of a 96-well black plate (Corning). Fluorescence was recorded for 5 min at 1-min intervals at 37°C (BioTek Neo; excitation, 494 nm; emission, 520 nm). After 5 min, 2 μL of each serial dilution for ferrioxamine-Fe^3+, ferrichrome-Fe^3+, and pyoverdine-Fe^3+ or DMSO for vehicle controls was added to each well. Fluorescence was recorded immediately for quenching assays and for 1 h at 1-min intervals for fluorescence recovery assays. Background fluorescence was subtracted from all fluorescence readings and 1-F/F0 was used to calculate the degree of quenching, where F0 is the initial fluorescence. Kd was calculated using GraphPad Prism using a one-site specific binding model or a two-site model. For fluorescence recovery assays, background was subtracted from all fluorescence readings and F/F0 expressed as a percent of control was plotted versus time.

[2] = tested on: PA14 ΔfpvA ΔfpvB ΔfiuA ΔfoxA quadruple mutant; experiment: Growth phenotypes of deletion mutants, quadruple mutant; assay type: cell-based, Pseudomonas aeruginosa; settings: 64 μg/mL DSX, 10 μg/mL siderophores, 10:90
Description: PA14, ΔfpvA, ΔfpvB, and ΔfpvA ΔfpvB strains treated with TS (A) and DSX (B) in 10:90. Green indicates growth, and white indicates no growth. Growth is expressed as percent of control. The PA14 ΔfpvA ΔfpvB strain complemented with pHERD20T, fpvA, or fpvB treated with TS (C) and DSX (D) in 10:90. […] All experiments are averaged from three independent biological replicates. Blue indicates growth and white indicates no growth. (H) Summary of growth phenotypes of WT PA14 and combinations of single, double, triple, and quadruple deletion mutants in fpvA, fpvB, fiuA, and foxA. […] Green indicates growth, whereas no growth is indicated in white. […] Representative plates are shown.
If there were no transporters for a particular siderophore, the mutant would fail to grow due to iron restriction.

[3] = target: T1, FpvB R648C; experiment: Whole-cell fluorescence quenching, FpvB R648C in ΔfpvA ΔfpvB; assay type: binding
Description: To determine the affinity of the siderophores for FpvA and FpvB, we adapted the method from Chakravorty et al. to generate a whole-cell sensor where fluorescence quenching serves as an indicator of ligand interaction ([31]). Siderophore binding triggers conformational changes at the extracellular loops of the TBDT (Fig. 3A). Cys substitutions were introduced at the loops and labeled with a fluorescent maleimide dye. When a ligand binds the transporter, the loops fold inward toward the lumen of the barrel, and changes in the chemical environment surrounding the fluorophore lead to quenching ([31], [32]). Fluorescence recovery occurs once the siderophore is taken up and the loop returns to its original conformation.
Cells were cultured overnight in LB with carbenicillin (200 μg/mL) at 37°C with shaking at 200 rpm. Cells were subcultured (1:200 dilution) in 10:90 plus 2% arabinose for 4 h without carbenicillin at 37°C with shaking at 200 rpm. […] Excess dye was quenched with 1 mM dithiothreitol (DTT) (Sigma) to stop the reaction. Cells were washed 3× with PBS. For fluorescence recovery assays, cells were incubated with 1× PBS plus 0.4% glucose at 37°C with shaking at 200 rpm. Glucose was prepared as a 20% stock (wt/vol) in 1× PBS and filter sterilized. Cells were spun down and washed 3× with 1× PBS and resuspended in 1× PBS for quenching assays and 1× PBS plus 0.4% glucose for fluorescence recovery assays.
as §1

Row | SMILES | Kd ([1]; read-out: Kd1 (converted)) | Kd ([1]; read-out: Kd2 (converted)) | growth in the presence of compound [2] | Kd for FpvB relative to ferrichrome ([3]; greater than ferrichrome) [fold] | Kd for FpvB relative to ferrioxamine B ([3]; greater than ferrioxamine B) [fold]
1 | CC(=O)N(O)CCCCCNC(=O)CCC(=O)N(O)CCCCCNC(=O)CCC(=O)N(O)CCCCCN [ferrioxamine B] | 0.178 µM and 0.17 µM | 660 µM and 600 µM | failed to grow |  | 
2 | NCCCCC(NC(=O)C(CO)NC(=O)[C@@H]1CCN=C2C(NC(=O)CCC(=O)O)=Cc3cc(O)c(O)cc3N21)C(=O)NCC(=O)NC(CCCN(O)C=O)C(=O)NC1CCCCNC(=O)C(CO)NC(=O)C(CCCN(O)C=O)NC1=O (some centres unmarked) [pyoverdine] (Suc-[X1][ξS][ξK]G[ξOrn(N(OH)CHO)][ξK][ξOrn(N(OH)CHO)][ξS]; lactam 6-C) |  |  |  | 200 | 20
